Patent US7585864B2, “Farnesyl protein transferase inhibitors and their use to treat cancer” (Schering Corporation, priority 2004, dated 2009)

Assays:
[1] = target: purified human farnesyl protein transferase (Homo sapiens, UniProt P49354+P49356); assay: FPT IC50 Assay; format: biochemical; settings: transfer of [3H] farnesyl to biotinylated H-ras peptide (biotin-CVLS), 37° C., 60 minutes
Protocol: FPT activity was determined by measuring the transfer of [^3H] farnesyl from [^3H] farnesyl pyrophosphate to a biotinylated peptide derived from the C-terminus of H-ras (biotin-CVLS). The reaction mixture contains: 50 mM Tris pH7.7, 5 mM MgCl2, 5 μM Zn^++, 5 mM DTT, 0.1% Triton-X, 0.05 μM peptide, 0.03 nM purified human farnesyl protein transferase, 0.180 μM [^3H] farnesyl pyrophosphate, plus the indicated concentration of tricyclic compound or vehicle control in a total volume of 100 μl. The reaction was incubated in a Vortemp shaking incubator at 37° C., 45 RPM for 60 minutes and stopped with 150 μl of 0.25 M EDTA containing 0.5% BSA and 1.3 mg/ml Streptavidin SPA beads. Radioactivity was measured in a Wallach 1450 Microbeta liquid scintillation counter. Percent inhibition was calculated relative to the vehicle control.

Human tumor cells = assay: Soft Agar Assay (anchorage-independent growth); format: cell-based; settings: colony outgrowth in 0.3% agarose, 10-16 days, MTT staining
Protocol: Anchorage-independent growth is a characteristic of tumorigenic cell lines. Human tumor cells can be suspended in growth medium containing 0.3% agarose and an indicated concentration of a farnesyl transferase inhibitor. The solution can be overlayed onto growth medium solidified with 0.6% agarose containing the same concentration of farnesyl transferase inhibitor as the top layer. After the top layer is solidified, plates can be incubated for 10-16 days at 37° C. under 5% CO2 to allow colony outgrowth. After incubation, the colonies can be stained by overlaying the agar with a solution of MTT (3-[4,5-dimethyl-thiazol-2-yl]-2,5-diphenyltetrazolium bromide, Thiazolyl blue) (1 mg/mL in PBS). Colonies can be counted and the IC50's can be determined.

| IC50 [1] | IC50 (Human tumor cells) | Compound |
| --- | --- | --- |
| 3 nM | 28 nM | Cc1cn(CCCN(Cc2ccccc2)C(=O)[C@H]2CN([C@H]3c4ccc(Cl)cc4OCc4cccnc43)CCN2C(=O)OC(C)(C)C)cn1 [Example 1] |
| 0.16 nM | – | Cc1cn(C[C@@H]2CCCN(C(=O)[C@H]3CN([C@@H]4c5ccc(Cl)cc5OCc5cccnc54)CCN3C(=O)OC3CCCCC3)C2)cn1 [Example 11] |
| 0.12 nM | < 5 nM | Cc1cn(C[C@@H]2CCCN(C(=O)[C@@H]3CN([C@H]4c5ccc(Cl)cc5OCc5cccnc54)CCN3C(=O)OC(C)(C)C)C2)cn1 [Example 4] |
